Measured values from patent US7524853B2 (Solvay Pharmaceuticals B.V., priority 2003, dated 2009).

Columns and labels:
Format in all cases: cell-based
[1] = target: T1, 17β-hydroxysteroid dehydrogenase type 3 (17β-HSD type 3) (Homo sapiens, UniProt P37058); experiment: Inhibition of 17β-HSD type 3 in MCF-7 cells stably expressing the isoenzyme (tritium labeled androstenedione conversion, HPLC); settings: MCF7, MCF-7 cells expressing 17β-HSD type 3, 2 nM tritium labeled androstenedione; for inhibition at 1 µM: 1 μM test compound, read-out: % Inhibition HSD3 1 μM; for inhibition at 10 µM: 10 μM test compound, read-out: % Inhibition HSD3 10 μM
T1 construct: expressed in transfected cells; host or cells: MCF-7
T1 sequence (P37058 1-310): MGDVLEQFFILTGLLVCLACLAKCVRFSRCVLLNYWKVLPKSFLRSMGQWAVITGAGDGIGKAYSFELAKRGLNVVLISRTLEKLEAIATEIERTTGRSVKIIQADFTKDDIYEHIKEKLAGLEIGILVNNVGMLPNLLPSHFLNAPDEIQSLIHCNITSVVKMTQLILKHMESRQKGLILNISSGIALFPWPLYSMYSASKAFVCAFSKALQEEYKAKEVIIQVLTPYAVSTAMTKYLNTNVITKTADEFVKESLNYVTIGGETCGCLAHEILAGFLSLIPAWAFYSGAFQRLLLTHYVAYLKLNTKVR
Outline: (§1)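 Whole-cell MCF-7 lines, one isoenzyme each; substrate 2 nM ³H-estrone (type 1), ³H-estradiol (type 2) or ³H-androstenedione (type 3) in growth medium + compound at two concentrations. TCA stop, HPLC-radioflow read; % inhibition from reduced conversion vs no-compound control.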

[2] = target: T2, 17β-hydroxysteroid dehydrogenase type 2 (17β-HSD type 2) (Homo sapiens, UniProt P37059); experiment: Inhibition of 17β-HSD type 2 in MCF-7 cells stably expressing the isoenzyme (tritium labeled estradiol conversion, HPLC); settings: MCF7, MCF-7 cells expressing 17β-HSD type 2, 2 nM tritium labeled estradiol; for inhibition at 1 µM: 1 μM test compound, read-out: % Inhibition HSD2 1 μM; for inhibition at 10 µM: 10 μM test compound, read-out: % Inhibition HSD2 10 μM
T2 construct: expressed in transfected cells; host or cells: MCF-7
T2 sequence (P37059 1-387): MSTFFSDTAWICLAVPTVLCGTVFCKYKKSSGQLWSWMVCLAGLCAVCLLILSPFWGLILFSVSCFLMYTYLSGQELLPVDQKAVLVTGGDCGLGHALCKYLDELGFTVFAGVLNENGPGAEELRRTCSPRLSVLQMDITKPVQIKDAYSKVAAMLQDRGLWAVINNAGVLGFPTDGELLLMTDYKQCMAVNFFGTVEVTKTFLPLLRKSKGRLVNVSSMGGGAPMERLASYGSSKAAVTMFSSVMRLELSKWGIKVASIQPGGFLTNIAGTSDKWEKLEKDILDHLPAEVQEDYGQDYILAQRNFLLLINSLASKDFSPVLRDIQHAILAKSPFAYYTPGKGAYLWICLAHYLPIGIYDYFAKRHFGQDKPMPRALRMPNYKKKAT
Outline: as §1

[3] = target: T3, 17β-hydroxysteroid dehydrogenase type 1 (17β-HSD type 1) (Homo sapiens, UniProt P14061); experiment: Inhibition of 17β-HSD type 1 in MCF-7 cells stably expressing the isoenzyme (tritium labeled estrone conversion, HPLC); settings: MCF7, MCF-7 cells expressing 17β-HSD type 1, 2 nM tritium labeled estrone; for inhibition at 1 µM: 1 μM test compound, read-out: % Inhibition HSD1 1 μM; for inhibition at 10 µM: 10 μM test compound, read-out: % Inhibition HSD1 10 μM
T3 construct: expressed in transfected cells; host or cells: MCF-7
T3 sequence (P14061 1-328): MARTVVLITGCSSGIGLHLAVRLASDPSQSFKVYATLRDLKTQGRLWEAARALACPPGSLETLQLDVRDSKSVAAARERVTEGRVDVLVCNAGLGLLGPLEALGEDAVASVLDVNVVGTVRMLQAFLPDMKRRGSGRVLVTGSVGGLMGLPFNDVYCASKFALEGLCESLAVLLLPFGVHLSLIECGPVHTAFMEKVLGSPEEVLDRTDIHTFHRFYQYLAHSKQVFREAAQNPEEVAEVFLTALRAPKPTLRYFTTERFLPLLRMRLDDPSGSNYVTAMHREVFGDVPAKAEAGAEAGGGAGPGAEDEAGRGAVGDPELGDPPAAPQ
Outline: as §1

CCCCn1c(-c2cc(OC)c(OC)c(OC)c2)nc2sc3c(c2c1=O)CCCC3 [No. 85, 3-Butyl-2-(3,4,5-trimethoxyphenyl)-5,6,7,8-tetrahydro-3H-benzo[4,5]thieno[2,3-d]pyrimidin-4-one]
inhibition at 1 µM [1]: -2.2%
inhibition at 10 µM [1]: 24.4%
inhibition at 1 µM [2]: 21.5%
inhibition at 10 µM [2]: 25.4%
inhibition at 1 µM [3]: 24.1%
inhibition at 10 µM [3]: 40.1%

CCCCn1c(-c2cc(OC)c(OC)c(OC)c2)nc2sc3c(c2c1=O)CCCC3=O [No. 86, 3-Butyl-2-(3,4,5-trimethoxyphenyl)-6,7-dihydro-3H,5H-benzo[4,5]thieno[2,3-d]pyrimidine-4,8-dione]
inhibition at 1 µM [1]: 11.3%
inhibition at 10 µM [1]: 45.7%
inhibition at 1 µM [2]: 18.9%
inhibition at 10 µM [2]: 19.5%
inhibition at 1 µM [3]: 23.6%
inhibition at 10 µM [3]: 46.6%

CCCCn1c(-c2cc(OC)c(OC)c(OC)c2)nc2sc3c(c2c1=O)CCC(Br)C3=O (stereo not drawn) [No. 87, 7-Bromo-3-butyl-2-(3,4,5-trimethoxyphenyl)-6,7-dihydro-3H,5H-benzo[4,5]thieno[2,3-d]pyrimidine-4,8-dione]
inhibition at 1 µM [1]: 13%
inhibition at 10 µM [1]: 31.9%
inhibition at 1 µM [2]: 24.6%
inhibition at 10 µM [2]: 23.4%
inhibition at 1 µM [3]: 26.8%
inhibition at 10 µM [3]: 67.4%

CCCCn1c(-c2cc(OC)c(OC)c(OC)c2)nc2sc3c(c2c1=O)CCC(Br)(Br)C3=O [No. 88, 3-Butyl-7,7-dibromo-2-(3,4,5-trimethoxyphenyl)-6,7-dihydro-3H,5H-benzo[4,5]thieno[2,3-d]pyrimidine-4,8-dione]
inhibition at 1 µM [1]: 20.4%
inhibition at 10 µM [1]: 23.3%
inhibition at 1 µM [2]: 25.9%
inhibition at 10 µM [2]: 29.9%
inhibition at 1 µM [3]: 25%
inhibition at 10 µM [3]: 40.5%

CCCCn1c(-c2cc(OC)c(OC)c(OC)c2)nc2sc3c(O)cccc3c2c1=O [No. 89, 3-Butyl-8-hydroxy-2-(3,4,5-trimethoxyphenyl)-3H-benzo[4,5]thieno[2,3-d]pyrimidin-4-one]
inhibition at 1 µM [1]: 30.9%
inhibition at 10 µM [1]: 80.1%
inhibition at 1 µM [2]: 31.2%
inhibition at 10 µM [2]: 40.1%
inhibition at 1 µM [3]: 37.7%
inhibition at 10 µM [3]: 84.7%

CCCCn1c(-c2cc(OC)c(OC)c(OC)c2)nc2sc3c(O)c(Br)ccc3c2c1=O [No. 90, 7-Bromo-3-butyl-8-hydroxy-2-(3,4,5-trimethoxyphenyl)-3H-benzo[4,5]thieno[2,3-d]pyrimidin-4-one]
inhibition at 1 µM [1]: 4%
inhibition at 10 µM [1]: 11.3%
inhibition at 1 µM [2]: 16.1%
inhibition at 10 µM [2]: 22%
inhibition at 1 µM [3]: 15.5%
inhibition at 10 µM [3]: 24.7%

COc1cc(-c2nc3sc4c(OC)cccc4c3c(=O)n2Cc2ccccc2)c(Br)c(OC)c1OC [No. 91, 3-Benzyl-8-methoxy-2-(2-bromo-3,4,5-trimethoxyphenyl)-3H-benzo[4,5]thieno[2,3-d]pyrimidin-4-one]
inhibition at 1 µM [1]: 3.7%
inhibition at 10 µM [1]: 18.1%
inhibition at 1 µM [2]: 28.2%
inhibition at 10 µM [2]: 33.7%
inhibition at 1 µM [3]: 21.5%
inhibition at 10 µM [3]: 26.1%

O=c1c2c(nc(-c3ccccc3)n1Cc1ccccc1)sc1c(O)c(Br)ccc12 [No. 92, 3-Benzyl-7-bromo-8-hydroxy-2-phenyl-3H-benzo[4,5]thieno[2,3-d]pyrimidin-4-one]
inhibition at 1 µM [1]: 4.7%
inhibition at 10 µM [1]: 24.3%
inhibition at 1 µM [2]: 42.7%
inhibition at 10 µM [2]: 60.9%
inhibition at 1 µM [3]: 22%
inhibition at 10 µM [3]: 23.3%

CC(=O)Oc1c(Br)ccc2c1sc1nc(-c3ccccc3)n(Cc3ccccc3)c(=O)c12 [No. 93, Acetic acid 3-benzyl-7-bromo-4-oxo-2-phenyl-3,4-dihydro-benzo[4,5]thieno[2,3-d]pyrimidin-8-yl ester]
inhibition at 1 µM [1]: 19.4%
inhibition at 10 µM [1]: 26.1%
inhibition at 1 µM [2]: 43.2%
inhibition at 10 µM [2]: 57.7%
inhibition at 1 µM [3]: 13.3%
inhibition at 10 µM [3]: 11.7%

CCCc1nc2sc3c(c2c(=O)n1Cc1ccccc1OC)CCCC3 [No. 94, 3-(2-Methoxybenzyl)-2-propyl-5,6,7,8-tetrahydro-3H-benzo[4,5]thieno[2,3-d]pyrimidin-4-one]
inhibition at 1 µM [1]: 2.2%
inhibition at 10 µM [1]: 21.1%
inhibition at 1 µM [2]: 25.7%
inhibition at 10 µM [2]: 31.5%
inhibition at 1 µM [3]: 16.5%
inhibition at 10 µM [3]: 27.2%

CCCc1nc2sc3c(c2c(=O)n1Cc1ccccc1OC)CCCC3=O [No. 95, 3-(2-Methoxybenzyl)-2-propyl-6,7-dihydro-3H,5H-benzo[4,5]thieno[2,3-d]pyrimidine-4,8-dione]
inhibition at 1 µM [1]: 9.9%
inhibition at 10 µM [1]: 62.4%
inhibition at 1 µM [2]: 6.9%
inhibition at 10 µM [2]: 31.2%
inhibition at 1 µM [3]: 17%
inhibition at 10 µM [3]: 59.6%

CCCc1nc2sc3c(c2c(=O)n1Cc1cc(Br)ccc1OC)CCC(Br)C3=O (stereo not drawn) [No. 96]
inhibition at 1 µM [1]: 13%
inhibition at 10 µM [1]: 37.5%
inhibition at 1 µM [2]: 17.2%
inhibition at 10 µM [2]: 21.9%
inhibition at 1 µM [3]: 19.5%
inhibition at 10 µM [3]: 65.1%

CCCc1nc2sc3c(c2c(=O)n1Cc1cc(Br)ccc1OC)CCC(Br)(Br)C3=O [No. 97, 7,7-Dibromo-3-(5-bromo-2-methoxybenzyl)-2-propyl-6,7-dihydro-3H,5H-benzo[4,5]thieno[2,3-d]pyrimidine-4,8-dione]
inhibition at 1 µM [1]: -5.9%
inhibition at 10 µM [1]: 11.5%
inhibition at 1 µM [2]: 25.2%
inhibition at 10 µM [2]: 44.6%
inhibition at 1 µM [3]: 18.1%
inhibition at 10 µM [3]: 29.4%

CCCc1nc2sc3c(O)cccc3c2c(=O)n1Cc1cc(Br)ccc1OC [No. 98]
inhibition at 1 µM [1]: 16.6%
inhibition at 10 µM [1]: 63.3%
inhibition at 1 µM [2]: 46.6%
inhibition at 10 µM [2]: 82.8%
inhibition at 1 µM [3]: 28.2%
inhibition at 10 µM [3]: 69.1%

CCCc1nc2sc3c(OC(C)=O)cccc3c2c(=O)n1Cc1cc(Br)ccc1OC [No. 99]
inhibition at 1 µM [1]: 15.9%
inhibition at 10 µM [1]: 68.9%
inhibition at 1 µM [2]: 46.1%
inhibition at 10 µM [2]: 85.4%
inhibition at 1 µM [3]: 21.8%
inhibition at 10 µM [3]: 64.5%

CCCc1nc2sc3c(O)cccc3c2c(=O)n1Cc1cc(Br)ccc1O [No. 100, 3-(5-Bromo-2-hydroxybenzyl)-8-hydroxy-2-propyl-3H-benzo[4,5]thieno[2,3-d]pyrimidin-4-one]
inhibition at 1 µM [1]: -0.8%
inhibition at 10 µM [1]: 7.7%
inhibition at 1 µM [2]: 28.8%
inhibition at 10 µM [2]: 81.3%
inhibition at 1 µM [3]: 23.5%
inhibition at 10 µM [3]: 66.7%

CCCc1nc2sc3c(c2c(=O)n1Cc1ccco1)CCCC3 [No. 101, 3-(Furan-2-ylmethyl)-2-propyl-5,6,7,8-tetrahydro-3H-benzo[4,5]thieno[2,3-d]pyrimidin-4-one]
inhibition at 1 µM [1]: 5.7%
inhibition at 10 µM [1]: 7.8%
inhibition at 1 µM [2]: 18%
inhibition at 10 µM [2]: 30%
inhibition at 1 µM [3]: 14.1%
inhibition at 10 µM [3]: 26%

CCCc1nc2sc3c(c2c(=O)n1Cc1ccco1)CCCC3=O [No. 102, 3-(Furan-2-ylmethyl)-2-propyl-6,7-dihydro-3H,5H-benzo[4,5]thieno[2,3-d]pyrimidine-4,8-dione]
inhibition at 1 µM [1]: 6.7%
inhibition at 10 µM [1]: 51.2%
inhibition at 1 µM [2]: 13.6%
inhibition at 10 µM [2]: 18.6%
inhibition at 1 µM [3]: 14.8%
inhibition at 10 µM [3]: 57.5%
